Data published in patent US7572616B2, “Alternative oxidase and uses thereof” (priority 2005, dated 2009).

How the values were obtained:
Drosophila mitochondria = assay: Oxygen consumption of isolated mitochondrial suspensions from flies; format: biochemical, Drosophila melanogaster; conditions: mitochondria from AOX-expressing flies
Flp-In™ T-REx™-293 cells [1] = format: cell-based, human
Flp-In™ T-REx™-293 cells [2] = assay: Succinate oxidation by digitonin permeabilized cells, Clark oxygen electrode; format: cell-based, human; conditions: AOX-expressing cells, 100 μM propyl gallate added after cyanide

CCCOC(=O)c1cc(O)c(O)c(O)c1 [n-propyl gallate]
sensitivity of residual cyanide-insensitive respiratory activity to AOX inhibitors (Drosophila mitochondria; cyanide present): sensitive | effect of AOX inhibitors on respiration when cyanide absent (Drosophila mitochondria; no cyanide): only a small effect | inhibition of residual cyanide-insensitive respiration (Flp-In™ T-REx™-293 cells [1]): completely inhibited | inhibition of respiration in the presence of cyanide (Flp-In™ T-REx™-293 cells [1]): almost completely inhibited | inhibition of cyanide-resistant succinate oxidation (Flp-In™ T-REx™-293 cells [2]): fully inhibited
